According to ChEMBL document CHEMBL6078713, “Synthesis and mechanistic studies of 4-aminoquinoline-Isatin molecular hybrids and Schiff's bases as promising antimicrobial agents” (Eur J Med Chem, 2025):
In brackets after ≈: the same amount, converted by molar mass. Activity calls are given as the source filed them. The calls are words filed in the database; no cut-off is given here.

Columns and labels:
Staphylococcus aureus [1] = experiment: Antibacterial activity against Staphylococcus aureus assessed as inhibition of bacterial growth; format: functional
Escherichia coli [2] = experiment: Antibacterial activity against Escherichia coli MTCC 443 assessed as diameter of zone of inhibition at 500 ug/ml by agar disk diffusion method; format: functional; settings: read-out: DIZ
Enterococcus faecalis [3] = experiment: Antibacterial activity against Enterococcus faecalis MTCC 439 assessed as diameter of zone of inhibition at 500 ug/ml by agar disk diffusion method; format: functional; settings: read-out: DIZ
Bacillus subtilis [4] = experiment: Antibacterial activity against Bacillus subtilis MTCC 736 assessed as diameter of zone of inhibition at 500 ug/ml by agar disk diffusion method; format: functional; settings: read-out: DIZ
Staphylococcus aureus [5] = experiment: Antibacterial activity against Staphylococcus aureus MTCC 902 assessed as diameter of zone of inhibition at 500 ug/ml by agar disk diffusion method; format: functional; settings: read-out: DIZ
Pseudomonas aeruginosa [6] = experiment: Antibacterial activity against Pseudomonas aeruginosa MTCC 2453 assessed as diameter of zone of inhibition at 500 ug/ml by agar disk diffusion method; format: functional; settings: read-out: DIZ
Salmonella typhi [7] = experiment: Antibacterial activity against Salmonella typhi assessed as diameter of zone of inhibition at 500 ug/ml by agar disk diffusion method; format: functional, Salmonella enterica subsp. enterica serovar Typhi; settings: Salmonella enterica, read-out: DIZ
Escherichia coli [8] = experiment: Antibacterial activity against Escherichia coli MTCC 443 assessed as inhibition of bacterial growth incubated overnight by serial dilution based spectrophotometer; format: functional
Enterococcus faecalis [9] = experiment: Antibacterial activity against Enterococcus faecalis MTCC 439 assessed as inhibition of bacterial growth incubated overnight by serial dilution based spectrophotometer; format: functional
Bacillus subtilis [10] = experiment: Antibacterial activity against Bacillus subtilis MTCC 736 assessed as inhibition of bacterial growth incubated overnight by serial dilution based spectrophotometer; format: functional
Staphylococcus aureus [11] = experiment: Antibacterial activity against Staphylococcus aureus MTCC 902 assessed as inhibition of bacterial growth incubated overnight by serial dilution based spectrophotometer; format: functional
Pseudomonas aeruginosa [12] = experiment: Antibacterial activity against Pseudomonas aeruginosa MTCC 2453 assessed as inhibition of bacterial growth incubated overnight by serial dilution based spectrophotometer; format: functional
Salmonella typhi [13] = experiment: Antibacterial activity against Salmonella typhi assessed as inhibition of bacterial growth incubated overnight by serial dilution based spectrophotometer; format: functional, Salmonella enterica subsp. enterica serovar Typhi; settings: Salmonella enterica
Escherichia coli [14] = experiment: Bactericidal activity against Escherichia coli MTCC 443 assessed as inhibition of bacterial growth incubated overnight; format: functional
Enterococcus faecalis [15] = experiment: Bactericidal activity against Enterococcus faecalis MTCC 439 assessed as inhibition of bacterial growth incubated overnight; format: functional
Bacillus subtilis [16] = experiment: Bactericidal activity against Bacillus subtilis MTCC 736 assessed as inhibition of bacterial growth incubated overnight; format: functional
Staphylococcus aureus [17] = experiment: Bactericidal activity against Staphylococcus aureus MTCC 902 assessed as inhibition of bacterial growth incubated overnight; format: functional
Pseudomonas aeruginosa [18] = experiment: Bactericidal activity against Pseudomonas aeruginosa MTCC 2453 assessed as inhibition of bacterial growth incubated overnight; format: functional
Salmonella typhi [19] = experiment: Bactericidal activity against Salmonella typhi assessed as inhibition of bacterial growth incubated overnight; format: functional, Salmonella enterica subsp. enterica serovar Typhi; settings: Salmonella enterica
Escherichia coli [20] = experiment: Ratio of MBC for antibacterial activity against Escherichia coli MTCC 443 to MIC for bactericidal activity against Escherichia coli MTCC 443; format: functional
Bacillus subtilis [21] = experiment: Ratio of MBC for antibacterial activity against Bacillus subtilis MTCC 736 to MIC for bactericidal activity against Bacillus subtilis MTCC 736; format: functional
Pseudomonas aeruginosa [22] = experiment: Ratio of MBC for antibacterial activity against Pseudomonas aeruginosa MTCC 2453 to MIC for bactericidal activity against Pseudomonas aeruginosa MTCC 2453; format: functional
Salmonella typhi [23] = experiment: Ratio of MBC for antibacterial activity against Salmonella typhi to MIC for bactericidal activity against Salmonella typhi; format: functional, Salmonella enterica subsp. enterica serovar Typhi
Enterococcus faecalis [24] = experiment: Antibacterial activity against Enterococcus faecalis MTCC 439 assessed as diameter of zone of inhibition at 0.5 times MIC incubated overnight by disk diffusion method; format: functional
Bacillus subtilis [25] = experiment: Antibacterial activity against Bacillus subtilis MTCC 736 assessed as diameter of zone of inhibition at 0.5 times MIC incubated overnight by disk diffusion method; format: functional
Salmonella typhi [26] = experiment: Antibacterial activity against Salmonella typhi assessed as diameter of zone of inhibition at 0.5 times MIC incubated overnight by disk diffusion method; format: functional, Salmonella enterica subsp. enterica serovar Typhi
Escherichia coli [27] = experiment: Antibacterial activity against Escherichia coli MTCC 443 assessed as diameter of zone of inhibition at MIC incubated overnight by disk diffusion method; format: functional
Enterococcus faecalis [28] = experiment: Antibacterial activity against Enterococcus faecalis MTCC 439 assessed as diameter of zone of inhibition at MIC incubated overnight by disk diffusion method; format: functional
Bacillus subtilis [29] = experiment: Antibacterial activity against Bacillus subtilis MTCC 736 assessed as diameter of zone of inhibition at MIC incubated overnight by disk diffusion method; format: functional
Staphylococcus aureus [30] = experiment: Antibacterial activity against Staphylococcus aureus MTCC 902 assessed as diameter of zone of inhibition at MIC incubated overnight by disk diffusion method; format: functional
Pseudomonas aeruginosa [31] = experiment: Antibacterial activity against Pseudomonas aeruginosa MTCC 2453 assessed as diameter of zone of inhibition at MIC incubated overnight by disk diffusion method; format: functional
Salmonella typhi [32] = experiment: Antibacterial activity against Salmonella typhi assessed as diameter of zone of inhibition at MIC incubated overnight by disk diffusion method; format: functional, Salmonella enterica subsp. enterica serovar Typhi
Escherichia coli [33] = experiment: Antibacterial activity against Escherichia coli MTCC 443 assessed as diameter of zone of inhibition at 2 times MIC incubated overnight by disk diffusion method; format: functional
Enterococcus faecalis [34] = experiment: Antibacterial activity against Enterococcus faecalis MTCC 439 assessed as diameter of zone of inhibition at 2 times MIC incubated overnight by disk diffusion method; format: functional
Bacillus subtilis [35] = experiment: Antibacterial activity against Bacillus subtilis MTCC 736 assessed as diameter of zone of inhibition at 2 times MIC incubated overnight by disk diffusion method; format: functional
Staphylococcus aureus [36] = experiment: Antibacterial activity against Staphylococcus aureus MTCC 902 assessed as diameter of zone of inhibition at 2 times MIC incubated overnight by disk diffusion method; format: functional
Pseudomonas aeruginosa [37] = experiment: Antibacterial activity against Pseudomonas aeruginosa MTCC 2453 assessed as diameter of zone of inhibition at 2 times MIC incubated overnight by disk diffusion method; format: functional
Salmonella typhi [38] = experiment: Antibacterial activity against Salmonella typhi assessed as diameter of zone of inhibition at 2 times MIC incubated overnight by disk diffusion method; format: functional, Salmonella enterica subsp. enterica serovar Typhi
Escherichia coli [39] = experiment: Synergistic antibacterial activity against Escherichia coli MTCC 443 assessed as inhibition of bacterial growth incubated overnight in presence of ciprofloxacin by serial dilution based spectrophotometer; format: functional
Enterococcus faecalis [40] = experiment: Synergistic antibacterial activity against Enterococcus faecalis MTCC 439 assessed as inhibition of bacterial growth incubated overnight in presence of ciprofloxacin by serial dilution based spectrophotometer; format: functional
Bacillus subtilis [41] = experiment: Synergistic antibacterial activity against Bacillus subtilis MTCC 736 assessed as inhibition of bacterial growth incubated overnight in presence of ciprofloxacin by serial dilution based spectrophotometer; format: functional
Staphylococcus aureus [42] = experiment: Synergistic antibacterial activity against Staphylococcus aureus MTCC 902 assessed as inhibition of bacterial growth incubated overnight in presence of ciprofloxacin by serial dilution based spectrophotometer; format: functional
Pseudomonas aeruginosa [43] = experiment: Synergistic antibacterial activity against Pseudomonas aeruginosa MTCC 2453 assessed as inhibition of bacterial growth incubated overnight in presence of ciprofloxacin by serial dilution based spectrophotometer; format: functional
Salmonella typhi [44] = experiment: Synergistic antibacterial activity against Salmonella typhi assessed as inhibition of bacterial growth incubated overnight in presence of ciprofloxacin by serial dilution based spectrophotometer; format: functional, Salmonella enterica subsp. enterica serovar Typhi; settings: Salmonella enterica
Escherichia coli [45] = experiment: Synergistic antibacterial activity against Escherichia coli MTCC 443 assessed as fractional inhibitory concentration index incubated overnight in presence of ciprofloxacin by microdilution checkerboard assay; format: functional
Enterococcus faecalis [46] = experiment: Synergistic antibacterial activity against Enterococcus faecalis MTCC 439 assessed as fractional inhibitory concentration index incubated overnight in presence of ciprofloxacin by microdilution checkerboard assay; format: functional
Bacillus subtilis [47] = experiment: Synergistic antibacterial activity against Bacillus subtilis MTCC 736 assessed as fractional inhibitory concentration index incubated overnight in presence of ciprofloxacin by microdilution checkerboard assay; format: functional
Staphylococcus aureus [48] = experiment: Synergistic antibacterial activity against Staphylococcus aureus MTCC 902 assessed as fractional inhibitory concentration index incubated overnight in presence of ciprofloxacin by microdilution checkerboard assay; format: functional
Pseudomonas aeruginosa [49] = experiment: Synergistic antibacterial activity against Pseudomonas aeruginosa MTCC 2453 assessed as fractional inhibitory concentration index incubated overnight in presence of ciprofloxacin by microdilution checkerboard assay; format: functional
Salmonella typhi [50] = experiment: Synergistic antibacterial activity against Salmonella typhi assessed as fractional inhibitory concentration index incubated overnight in presence of ciprofloxacin by microdilution checkerboard assay; format: functional, Salmonella enterica subsp. enterica serovar Typhi
Escherichia coli [51] = experiment: Bacteriostatic activity against Escherichia coli MTCC 443 assessed as reduction in bacterial growth at 2 times MIC measured upto 24 hrs by absorbance based assay; format: functional, organism-based
Staphylococcus aureus [52] = experiment: Bacteriostatic activity against Staphylococcus aureus MTCC 902 assessed as reduction in bacterial growth at 2 times MIC measured upto 24 hrs by absorbance based assay; format: functional, organism-based
Enterococcus faecalis [53] = experiment: Antibacterial activity against Enterococcus faecalis MTCC 439 assessed as inhibition of bacterial growth at 200 ug/ml incubated overnight by spectrophotometry relative to control; format: functional
Bacillus subtilis [54] = experiment: Antibacterial activity against Bacillus subtilis MTCC 736 assessed as inhibition of bacterial growth at 200 ug/ml incubated overnight by spectrophotometry relative to control; format: functional
Pseudomonas aeruginosa [55] = experiment: Antibacterial activity against Pseudomonas aeruginosa MTCC 2453 assessed as inhibition of bacterial growth at 200 ug/ml incubated overnight by spectrophotometry relative to control; format: functional

## CCCCCCCCCCCCOC(=O)c1cc(OCCCCCCCCCCCC)nc2ccccc12
Staphylococcus aureus [1]
  MIC: 6.25 µg/mL (≈ 11.9 µM)

## Fc1ccc(/C=N/CCNc2ccnc3cc(Cl)ccc23)cc1
Escherichia coli [2]
  zone of inhibition at 500 µg/mL: 8 mm
Enterococcus faecalis [3]
  zone of inhibition at 500 µg/mL: 10 mm
Bacillus subtilis [4]
  zone of inhibition at 500 µg/mL: 10 mm
Staphylococcus aureus [5]
  zone of inhibition at 500 µg/mL: 9 mm
Pseudomonas aeruginosa [6]
  zone of inhibition at 500 µg/mL: 7 mm
Salmonella typhi [7]
  zone of inhibition at 500 µg/mL: 11 mm
Escherichia coli [8]
  MIC: 512 µg/mL (≈ 1560 µM)
Enterococcus faecalis [9]
  MIC: 256 µg/mL (≈ 781 µM)
Bacillus subtilis [10]
  MIC: 256 µg/mL (≈ 781 µM)
Staphylococcus aureus [11]
  MIC: 256 µg/mL (≈ 781 µM)
Pseudomonas aeruginosa [12]
  MIC: 512 µg/mL (≈ 1560 µM)
Salmonella typhi [13]
  MIC: 128 µg/mL (≈ 390 µM)
Escherichia coli [14]
  MBC: 512 µg/mL (≈ 1560 µM)
Enterococcus faecalis [15]
  MBC: > 512 µg/mL
Bacillus subtilis [16]
  MBC: 256 µg/mL (≈ 781 µM)
Staphylococcus aureus [17]
  MBC: > 512 µg/mL
Pseudomonas aeruginosa [18]
  MBC: 512 µg/mL (≈ 1560 µM)
Salmonella typhi [19]
  MBC: 128 µg/mL (≈ 390 µM)
Escherichia coli [20]
  Ratio: 1
Bacillus subtilis [21]
  Ratio: 1
Pseudomonas aeruginosa [22]
  Ratio: 1
Salmonella typhi [23]
  Ratio: 1
Enterococcus faecalis [24]
  diameter of the inhibition zone (DIZ): 7 mm
Bacillus subtilis [25]
  diameter of the inhibition zone (DIZ): 9 mm
Salmonella typhi [26]
  diameter of the inhibition zone (DIZ): 10 mm
Escherichia coli [27]
  diameter of the inhibition zone (DIZ): 10 mm
Enterococcus faecalis [28]
  diameter of the inhibition zone (DIZ): 7 mm
Bacillus subtilis [29]
  diameter of the inhibition zone (DIZ): 9 mm
Staphylococcus aureus [30]
  diameter of the inhibition zone (DIZ): 8 mm
Pseudomonas aeruginosa [31]
  diameter of the inhibition zone (DIZ): 8 mm
Salmonella typhi [32]
  diameter of the inhibition zone (DIZ): 10 mm
Escherichia coli [33]
  diameter of the inhibition zone (DIZ): 13 mm
Enterococcus faecalis [34]
  diameter of the inhibition zone (DIZ): 7 mm
Bacillus subtilis [35]
  diameter of the inhibition zone (DIZ): 13 mm
Staphylococcus aureus [36]
  diameter of the inhibition zone (DIZ): 10 mm
Pseudomonas aeruginosa [37]
  diameter of the inhibition zone (DIZ): 9 mm
Salmonella typhi [38]
  diameter of the inhibition zone (DIZ): 11 mm
Escherichia coli [39]
  MIC: 64 µg/mL
Enterococcus faecalis [40]
  MIC: 128 µg/mL
Bacillus subtilis [41]
  MIC: 256 µg/mL
Staphylococcus aureus [42]
  MIC: 32 µg/mL
Pseudomonas aeruginosa [43]
  MIC: 256 µg/mL
Salmonella typhi [44]
  MIC: 16 µg/mL
Escherichia coli [45]
  fractional inhibitory concentration index (FICI): 0.37
Enterococcus faecalis [46]
  fractional inhibitory concentration index (FICI): 1.5
Bacillus subtilis [47]
  fractional inhibitory concentration index (FICI): 2
Staphylococcus aureus [48]
  fractional inhibitory concentration index (FICI): 1.12
Pseudomonas aeruginosa [49]
  fractional inhibitory concentration index (FICI): 1.5
Salmonella typhi [50]
  fractional inhibitory concentration index (FICI): 0.187
Escherichia coli [51]
  Activity: Active
Staphylococcus aureus [52]
  Activity: Active
Enterococcus faecalis [53]
  inhibition at 200 µg/mL: 100%
Bacillus subtilis [54]
  inhibition at 200 µg/mL: 100%
Pseudomonas aeruginosa [55]
  inhibition at 200 µg/mL: 100%
